Assay results published in ChEMBL document CHEMBL1157539, “Thousands of chemical starting points for antimalarial lead identification” (Nature, 2010).

test system: Plasmodium falciparum; experiment: GSK_TCMDC: Inhibition of Plasmodium falciparum 3D7 in whole erythrocytes, using parasite LDH activity as an index of growth.; format: functional, organism-based; settings: Plasmodium falciparum, 3D7

| SMILES | XC50 [nM] |
| --- | --- |
| Cc1ccc(Nc2nc(N/N=C/c3cc4c(cc3Br)OCO4)nc(Nc3ccc([N+](=O)[O-])cc3)n2)cc1C | 750 |
| CCN(CC)CCN(Cc1ccc(-c2ccc(C(F)(F)F)cc2)cc1)C(=O)Cn1c(CCc2cccc(F)c2F)nc(=O)c2ccccc21 | 671 |
| CCN(CC)CCN(Cc1ccc(-c2ccc(C(F)(F)F)cc2)cc1)C(=O)Cn1c(SCc2ccc(F)cc2)nc(=O)c2ccccc21 | 773 |
| COc1ccc2nc3cc(Cl)ccc3c(NCCCCCCNc3c4ccc(Cl)cc4nc4ccc(OC)cc34)c2c1 | 661 |
| Cc1[nH]c(C)c(C(F)(F)F)c(=O)c1-c1ccc(Oc2ccc(OC(F)(F)F)cc2)cc1 | 173 |
| O=C(Cc1ccccc1)NC(CCN1CCC(NC(=O)c2ccc(Cl)cc2)CC1)c1ccc(Cl)c(Cl)c1 (stereo unspecified) | 916 |
| CC1(C)NC(N)=NC(=N)N1OCCCCCOc1ccccc1 | 3.2 |
| COc1ccc2nccc([C@@H](O)CN3CCC(NC(=O)C(c4ccsc4)N4CCN(c5ccccc5OC)CC4)CC3)c2c1 (stereo partly specified) | 832 |
| COc1ccc(C(=O)N2CCc3cc4nccc(N5CCN6CCC[C@H]6C5)c4cc32)cc1 | 948 |
| COc1ccc(C2CNCc3c2cc(OC)c(OC)c3Cl)cc1 (stereo unspecified) | 731 |
| Cc1cccc(Oc2cccc3[nH]nc(N)c23)c1 | 1040 |
| O=C(Nc1ccc(Cl)cc1)c1cccc(CN2CCCN(Cc3cccc(O)c3)CC2)c1 | 957 |
| NC1CCN(CCNCc2cccc(-c3ccc(-c4nc5cc(C(F)(F)F)ccc5[nH]4)cc3)c2)C1 (stereo unspecified) | 893 |
| COC(=O)c1ccc(-c2ccc(-c3cccnc3)cc2C)cc1 | 662 |
| N#CCCN1CCN(Cc2ccc(-c3cccc(-c4nc5cc(F)ccc5[nH]4)c3)cc2)CC1 | 972 |
| N#Cc1ccc(N2CCN(Cc3cccc(-c4ccc(-c5nc6cc(C(F)(F)F)ccc6[nH]5)s4)c3)CC2)nc1 | 1040 |
| O=C(Cn1c(CCc2cccc(F)c2F)cc(=O)c2cccnc21)N(CCn1ccnc1)Cc1ccc(-c2ccc(C(F)(F)F)cc2)cc1 | 672 |
| Clc1cccc(Cl)c1CCNCC1CCN(CC2CCCCC2)CC1 | 212 |
| CC(=O)c1ccc2nc[nH]c(=O)c2c1 | 722 |
| COc1ccc2[nH]c(C)cc(=NN=Cc3ccccc3Cl)c2c1 | 601 |
| Cc1ccc(-c2nc(N3CCN(C(=O)c4ccco4)CC3)c3ccc(Cl)cc3n2)cc1 | 1210 |
| COc1ccc2nccc([C@@H](O)CN3CCC(NCc4cc5ccccc5cn4)CC3)c2n1 | 918 |
| Cc1ccc(NC(=O)c2ccc(C(=O)NC3CCN(CC4CCCCC4)CC3)cc2)cc1 | 903 |
| CCC(C)NCC(O)(c1ccc(Cl)cc1)c1ccc(Cl)cc1 (stereo unspecified) | 843 |

| SMILES | XC50 [nM] |
| --- | --- |
| Cc1cc(N[C@@H](Cc2ccccc2)C(=O)NC2CCCC2)nc(NCc2ccccc2C)n1 | 1230 |
| COc1ccc(NC(=O)N2CCN(CCCCCNC(=O)/C=C/c3ccc(C(F)(F)F)cc3)CC2)cc1Cl | 859 |
| c1ccc(CN2CCC(NCc3ccc(-c4ccc(CNC5CCCC5)cc4)cc3)CC2)cc1 | 294 |
| CO/C(=C\C=C\c1cc2cc(Cl)c(Cl)cc2[nH]1)C(=O)NCCCN1CCN(c2cccc(OC)c2)CC1 | 845 |
| CC(C)CCN1CCC(Oc2ccc(NC(=O)c3ccccc3)cc2Cl)CC1 | 1300 |
| CCN(CC)CCNC(=O)c1ccc(NC(=O)c2oc3c(Cl)cccc3c2C)cc1 | 703 |
| COc1ccc(Nc2nccc(-c3ccc(NC(=O)c4cc5cc(F)ccc5[nH]4)cc3)n2)cc1 | 630 |
| CCCCCCCCCN(CCC)C(=O)[C@@H]1OC(C(=O)OC(c2ccccc2)c2ccccc2)=C[C@H](NC(=O)OC(C)(C)C)[C@H]1NC(C)=O | 640 |
| NC1CCN(c2nc(NCCCc3ccc(O)cc3)nc(NCc3cccc4ccccc34)n2)CC1 | 724 |
| CCc1ccc(OCc2ccccc2C(=O)Nc2ccc3nc(C)cc(N)c3c2)cc1 | 203 |
| Cc1cc(Nc2nc(NCc3cccnc3)nc3ccccc23)n[nH]1 | 852 |
| O=C(Nc1ccc(Cl)cc1)c1ccc(CN2CCCN(Cc3cccc(F)c3)CC2)cc1 | 1030 |
| CCCCN1CCCC[C@H]1[C@@H](O)c1ccnc2ccc(OCC)cc12 | 773 |
| CC(C)(C)c1ccc(NC(=O)c2cccc(CN3CCCN(CC4CCCCC4)CC3)c2)cc1 | 737 |
| COc1ccc(C=Cc2cc(=N)c3ccccc3[nH]2)cc1Br | 713 |
| CC1CCCCN1CCCNc1nc(NCc2ccccc2)c2ccccc2n1 (stereo unspecified) | 953 |
| COc1cc(F)c2nccc([C@@H](O)CN3CCC(NCc4nc5cccc(F)c5[nH]4)CC3)c2c1 | 847 |
| Cc1cc(N[C@@H](Cc2ccccc2)C(=O)Nc2ccccc2)nc(NCCc2cccnc2)n1 | 1340 |
| O=C(NCCCN1CCOCC1)c1ccc(-c2cccc(NC(=O)c3ccc(Cl)c(Cl)c3)c2)cc1 | 683 |
| CC(C)(C)c1ccc(CN2CCCCC(NC(=O)c3cc(-c4cccc(Cl)c4)cs3)C2)cc1 (stereo unspecified) | 999 |
| Cc1nc(-c2ccc(C#N)cc2)sc1C(=O)NCCCCN1CCC(c2ccc3c(c2OCCO)CCCC3)CC1 | 850 |
| Nc1ccc(-c2nc3c(ccc4ccccc43)[nH]2)cc1 | 941 |
| Cc1cc(N2CCC(NS(=O)(=O)c3ccccc3)CC2)nc(Nc2cccc(C#N)c2)n1 | 1350 |
| Cn1nc(-c2cccc(CNCCc3cccs3)c2)c2cnc(NC3CCCC3)nc21 | 1890 |

| SMILES | XC50 [nM] |
| --- | --- |
| CCCCCOc1ccc(C(O)C(CN2CCCCC2)c2ccccc2)cc1 (stereo unspecified) | 877 |
| CCC1(C)CC(CCNCc2ccccc2O)(c2ccc(C)cc2)CCO1 (stereo unspecified) | 38.8 |
| CCCCCCCn1c2c(c(=N)c3c1CCC3)CCCC2 | 102 |
| CN(C)CCOc1ccc(NC(=O)NC(C)(C)c2nc(-c3ccc(Cl)c(O)c3)c(-c3ccncc3)[nH]2)cc1 | 113 |
| COc1cc(-c2nnc(SCC(=O)Nc3cc(C)on3)n2C)cc(OC)c1O | 177 |
| CS(=O)(=O)c1cccc(-c2ccc3oc(C(N)=O)c(NC(=O)c4cccs4)c3c2)c1 | 589 |
| C=C[C@]1(C)C[C@@H](OC(=O)NC(=O)CCCS(=O)(=O)c2nnc(C)s2)[C@]2(C)[C@H](C)CC[C@]3(CCC(=O)[C@H]32)[C@@H](C)[C@@H]1O | 31.5 |
| O=C(Nc1ccc(-c2nc3ccccc3[nH]2)cc1)c1cncc(Br)c1 | 814 |
| Cc1cc(C(=O)NC2CCN(Cc3ccccc3)CC2)ccc1-c1nc2ccc(C(F)(F)F)cc2[nH]1 | 891 |
| O=C(C=Cc1ccccc1)Nc1ccc(C#CC=Cc2ccc(NC(=O)C=Cc3ccccc3)cc2)cc1 | 847 |
| CC(C)(CNCc1ccc(F)c(F)c1)c1nc(-c2ccc(Cl)c(O)c2)c(-c2ccncc2)[nH]1 | 660 |
| COc1ccc2nc(Nc3nc4cnccc4[nH]3)sc2c1 | 1130 |
| Cc1cc(O)c(CN(C)Cc2ccc3c(c2)OCO3)cc1C(C)C | 738 |
| Cc1cc(OCc2ccncc2)cc2c1C(=O)CC(C)(C)O2 | 183 |
| O=C(NCc1cccc(Br)c1)c1ccc(CNC2CCN(Cc3ccccc3)CC2)cc1 | 875 |
| CNCCCNCc1ccc(-c2ccc(F)c(Cl)c2)o1 | 752 |
| COc1cc(Cc2cnc3nc(N)nc(N)c3c2C)cc(OC)c1OC | 64.2 |
| Cc1nc(N2CCC(C)CC2)c2c3c(sc2n1)CCCC3 | 1060 |
| O=C(/C=C/c1ccccc1Cl)Nc1ccc(Br)c(OCCN2CCC(O)(c3ccccc3)CC2)c1 | 483 |
| N#Cc1ccc2c(c1)CCN(CCC1CCC(NC(=O)/C=C/c3cc(Br)cs3)CC1)CC2 (stereo unspecified) | 997 |
| O=C(/C=C/c1ccc(Cl)c(Cl)c1)NCCCCCN1CCC(NC(=O)Nc2cc(Cl)ccc2Cl)CC1 | 433 |
| CC(=O)Oc1ccc(C(=O)Oc2ccccc2C#CC#N)cc1OC(C)=O | 320 |
| COc1cc(O)c2c(=O)c(OC)c(-c3cccc(Cl)c3OCC(=O)O)oc2c1OC | 586 |
| C[C@@H](Oc1cc(-n2cnc3ccc(OCC4CCN(S(C)(=O)=O)CC4)cc32)sc1C(N)=O)c1ccccc1C(F)(F)F | 1020 |

| SMILES | XC50 [nM] |
| --- | --- |
| COc1ccc(OC)c(NC(=O)C2c3ccccc3C(=O)N(CC(C)C)C2c2cccs2)c1 (stereo unspecified) | 805 |
| CN(C)c1cccc(NC(=O)N[C@H]2N=C(c3ccccc3)c3ccccc3N(CC(=O)N3CCCC3)C2=O)c1 | 254 |
| CC(=O)c1ccc(N2C(=O)C3C(Cc4ccc(OC(C)(C)C)cc4)NC4(C(=O)N(Cc5ccc(C(C)(C)C)cc5)c5ccccc54)C3C2=O)cc1 (stereo unspecified) | 1280 |
| CS(=O)(=O)CCNCc1cccc(-c2cc3c(Nc4ccc(OCc5cccc(F)c5)c(Cl)c4)ncnc3s2)c1 | 198 |
| CN(C)S(=O)(=O)n1ncc2c3c(N)nc(N)nc3ccc21 | 178 |
| O=C(NC1CCCCCC1)C1CCCN(C(=O)c2ccc(O)c(-c3ccc(Cl)c(Cl)c3)c2)C1 (stereo unspecified) | 763 |
| O=C(Nc1cccc(-c2ccc(-c3nc4ccccc4[nH]3)s2)c1)c1ccncc1 | 778 |
| CCOc1cc(C)ccc1N(C1CCN(CCCCNC(=O)c2ccc(-c3ccc(C(F)(F)F)cc3)cc2)CC1)S(=O)(=O)c1ccccc1 | 1020 |
| NC1CCN(c2nc(NCCCc3ccc(O)cc3)nc(NCc3ccccc3-c3ccccc3)n2)CC1 | 678 |
| O=C(Nc1ccncc1)c1cn(-c2ccccc2)nc1-c1cccs1 | 977 |
| COc1ccc2nc3cc(Cl)ccc3c(Nc3ccc(Sc4ccc(Nc5c6ccc(Cl)cc6nc6ccc(OC)cc56)cc4)cc3)c2c1 | 199 |
| CN(C)c1ccc(NC2=NC(N)=NC(C)(C)N2)cc1 | 223 |
| CN1CCC[C@@H](Oc2cc3c(cc2Br)CCN3C(=O)Nc2ccc(-c3ccncc3)c(Cl)c2)C1 | 624 |
| Cc1cc(Nc2cccc(C#N)c2)nc(Nc2ccccc2C)n1 | 861 |
| Cc1c(C(=O)N2CCCC(C(F)(F)F)C2)sc2cccc(F)c12 (stereo unspecified) | 599 |
| CCOCCCNc1sc(S(=O)(=O)c2ccccc2)nc1S(=O)(=O)c1ccc(C)cc1 | 809 |
| O=[N+]([O-])c1cccc(-c2nc(-c3ccc(Br)cc3)[nH]c2-c2ccc(Br)cc2)c1 | 759 |
| O=C(NC1CCC(CN2CCC(c3c[nH]c4ccccc34)CC2)CC1)[C@H]1Cc2ccccc2CN1 (stereo partly specified) | 948 |
| Cn1nc(-c2ccc(NC(=O)Nc3cc(C(F)(F)F)ccc3F)c(F)c2)c2cnc(NCCCN3CCOCC3)nc21 | 604 |
| CC[C@H]1CN2CC[C@H]1C[C@@H]2[C@H](O)c1ccnc2ccc(O)cc12 | 1040 |
| Fc1cc(Cl)ccc1Nc1ccnc2cc(I)ccc12 | 1130 |
| O=C(Nc1ccc(-c2nc3cc4ccccc4cc3[nH]2)cc1)c1cccc(Br)c1 | 363 |
| CCc1nc2nc(C)cc(Nc3ccc(F)c(Cl)c3)n2n1 | 974 |
| O=C(/C=C/c1ccc(Cl)c(Cl)c1)NCCCCCN1CCC(CCNC(=O)/C=C/c2ccccc2F)CC1 | 871 |
